How the values were obtained:
[1] = tested on: velvetleaf (Abutilon theophrasti); assay: Preemergence herbicidal activity, velvetleaf; type: in vivo; details: Abutilon theophrasti, pre-emergence, Rate of Application 0.3 Kg/Ha, examined after 12-17 days, read-out: PREEMERGENCE HERBICIDAL ACTIVITY (% CONTROL) ABUTH
[2] = tested on: morningglory (Ipomea lacunosa or Ipomea hederacea); assay: Preemergence herbicidal activity, morningglory; type: in vivo; details: Ipomoea, pre-emergence, Rate of Application 0.3 Kg/Ha, examined after 12-17 days, read-out: PREEMERGENCE HERBICIDAL ACTIVITY (% CONTROL) IPOSS
[3] = tested on: common chickweed (Stellaria media); assay: Preemergence herbicidal activity, chickweed; type: in vivo; details: Stellaria media, pre-emergence, Rate of Application 0.3 Kg/Ha, examined after 12-17 days, read-out: PREEMERGENCE HERBICIDAL ACTIVITY (% CONTROL) STEME
[4] = tested on: soybean (Glycine max var. Winchester); assay: Postemergence herbicidal activity, soybean; type: in vivo; details: Glycine max, post-emergence, rate of application 0.3 Kg/Ha, rated after 12-17 days, read-out: Postemergence herbicidal activity (% control) SOY
[5] = tested on: field corn (Zea mays var. Pioneer 3732); assay: Postemergence herbicidal activity, corn; type: in vivo; details: Zea mays, post-emergence, rate of application 0.3 Kg/Ha, rated after 12-17 days, read-out: Postemergence herbicidal activity (% control) CRN
[6] = tested on: velvetleaf (Abutilon theophrasti); assay: Postemergence herbicidal activity, velvetleaf; type: in vivo; details: Abutilon theophrasti, post-emergence, rate of application 0.3 Kg/Ha, rated after 12-17 days, read-out: Postemergence herbicidal activity (% control) ABUTH

melting point [°C]	Compound	inhibition at 300 g/ha [1] [%]	inhibition at 300 g/ha [2] [%]	inhibition at 300 g/ha [3] [%]	inhibition at 300 g/ha [4] [%]	inhibition at 300 g/ha [5] [%]	inhibition at 300 g/ha [6] [%]
150 to 155	CCc1nc2c(-n3c(=O)cc(C(F)(F)F)n(C)c3=O)c(F)cc(Cl)c2[nH]1 [Compound 367, 3-(4-CHLORO-2-ETHYL-6-FLUOROBENZIMIDAZOL-7-YL)-1-METHYL-6-TRIFLUOROMETHYL-2,4(1H,3H)-PYRIMIDINEDIONE]	100	100	100	100	100	100
–	CC(C)c1nc2c(-n3c(=O)cc(C(F)(F)F)n(C)c3=O)c(F)cc(Cl)c2o1 [Compound 28, 1-METHYL-6-TRIFLUOROMETHYL-3-[7-CHLORO-5-FLUORO-2-(1-METHYLETHYL)BENZOXAZOL4-YL]-2,4(1H,3H)-PYRIMIDINEDIONE]	100	100	100	100	80	100
208 to 210	Cn1c(C(F)(F)F)cc(=O)n(-c2c(F)cc(Cl)c3[nH]c(C(F)(F)F)cc23)c1=O [Compound 500, 3-(7-CHLORO-5-FLUORO-2-TRIFLUOROMETHYLINDOL-4-YL)-1-METHYL-6-TRIFLUOROMETHYL-2,4(1H,3H)-PYRIMIDINEDIONE]	100	100	100	95	95	100
